The values below come from ChEMBL document CHEMBL5726113, “Compounds and methods for kinase modulation, and indications therefor” (2017).

In this assay the target is RAF proto-oncogene serine/threonine-protein kinase (Homo sapiens, UniProt P04049). Description: Biochemical Assay: Assays for biochemical and cell based activity are known in the art, for example, as described in PCT publication WO 2007/002433, the disclosure of which is hereby incorporated by reference as it relates to such assays. For example, the biochemical activity IC50 values are determined with respect to inhibition of B-Raf kinase activity, c-Raf-1 kinase activity, or B-Raf V600E kinase activity, where inhibition of phosphorylation of a peptide substrate is measured as a function of compound concentration. Compounds to be tested are diluted in dimethyl sulfoxide to a concentration of 0.1 mM. These are serially diluted 15 μL into 30 μL of dimethyl sulfoxide seven times in 96 well plates for a total of 8 dilution points, and for each dilution point 1 μL is added to a well of an assay plate. Plates are prepared such that each well in a 384 well plate contains 1 μL of compound in 10 μL volume with 0.1 ng Raf enzyme (i.e. any of B-Raf, c-Raf-1 or B-Raf V600E, Upstate Biotechnology or prepared by methods known to one of skill in the art), 50 mM HEPES, pH 7.0, 50 mM NaCl, 2 mM MgCl2, 1 mM MnCl2, 0.01% Tween-20, 1 mM DTT, and 100 nM biotin-MEK1 as substrate. The reaction is started with addition of 10 μL of 200 μM ATP (i.e. final 100 μM ATP). […].

Usually IC50 stands for the concentration at which inhibition is half-maximal. Low readings indicate higher potency, high ones lower potency.

RAF proto-oncogene serine/threonine-protein kinase, sequence (P04049 whole entry): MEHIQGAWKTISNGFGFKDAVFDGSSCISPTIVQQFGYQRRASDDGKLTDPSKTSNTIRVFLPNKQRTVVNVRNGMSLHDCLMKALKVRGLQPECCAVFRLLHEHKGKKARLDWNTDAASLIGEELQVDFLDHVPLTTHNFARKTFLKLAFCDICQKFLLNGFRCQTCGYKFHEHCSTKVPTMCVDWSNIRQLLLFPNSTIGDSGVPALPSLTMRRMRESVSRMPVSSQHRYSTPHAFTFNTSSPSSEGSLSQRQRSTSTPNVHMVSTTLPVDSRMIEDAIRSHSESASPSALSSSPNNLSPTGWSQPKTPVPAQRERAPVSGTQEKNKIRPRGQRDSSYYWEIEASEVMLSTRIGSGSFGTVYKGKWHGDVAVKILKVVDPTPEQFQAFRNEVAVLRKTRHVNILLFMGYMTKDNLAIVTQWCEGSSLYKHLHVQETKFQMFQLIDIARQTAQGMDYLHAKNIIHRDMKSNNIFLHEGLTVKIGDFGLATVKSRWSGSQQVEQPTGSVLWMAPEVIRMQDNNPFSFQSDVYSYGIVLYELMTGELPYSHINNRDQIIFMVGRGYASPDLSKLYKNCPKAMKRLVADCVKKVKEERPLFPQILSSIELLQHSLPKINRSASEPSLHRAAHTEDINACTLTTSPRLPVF

Molecule `CCCS(=O)(=O)Nc1ccc(F)c(C(=O)c2c[nH]c3ncnc(Nc4ccccc4)c23)c1F` displayed an IC50 of less than 100 nM.
